Tests used:
[1] = tested on: IL-1β, IL-6, IL-10 and soluble CD163 in lamb plasma; test: Plasma cytokine and soluble CD163 ELISA in lambs; assay type: in vivo; details: early-stage study, PT lambs vs vehicle
Source text: (§1) ELISA: The serum and bronchoalveolar lavage (BAL) fluid samples were used to quantify cytokine and soluble CD163 (sCD163) concentrations. The ELISA experiment analysis used commercially available ELISA kits, which were quantified using a plate reader. The inventors used GraphPad Prism V. 10.4. All sheep (ovine) ELISA kits were used within the expiry dates. Ovine IL-1β(Cat #ELO-IL1β), and ovine IL-6 (Cat #ELO-IL6) ELISA kits were purchased from RayBiotech, Peachtree Corners, GA, USA, sheep IL-10 (Cat #E12817Sh-96) was purchased from Lifeome Biolabs, Oceanside, CA, sheep CD163 (cat #MBS9364870) was purchased from MyBioSource, Inc. San Diego, CA, and Pierce™ BCA Protein Assay Kit (Cat #23227) from Thermo Fischer Scientific, Rockford, IL.

[2] = tested on: bronchoalveolar lavage fluid (BALf); test: Total protein (BCA) and TNF-α in lamb bronchoalveolar lavage fluid; assay type: in vivo
Source text: ELISA and BCA assay methods. BCA assay: The lamb BAL fluid samples (10d and 90d terminal studies) were centrifuged to remove the cell pellets, and the supernatant was used to assess the total protein using the Pierce™ BCA Protein Assay Kits, which were read using a BioTek synergy H1 microplate reader (Fisher Scientific, Toronto, ON, Canada).
as §1

[3] = tested on: cord blood mononuclear cells (CBMCs); test: LPS tolerance / pretreatment in CBMCs; assay type: cell-based, human
Method: Cells were dosed with AVR-48 [100 μM], LPS [50 ng/mL], and in combination show (FIG. 16A). […] N=3, One-way ANOVA was used for analysis. […] N=3, Two-way ANOVA.
N=3 *p<0.05, **p<0.01, ***p<0.001. One-way ANOVA and t tests.

[4] = tested on: cord blood mononuclear cells (CBMCs); test: Macrophage lineage in CBMCs; assay type: cell-based, human; details: 100 μM and LPS 50 ng/mL, 72 h (3d), HLA-DRlow/CD163high
Source text: N=3, *P<0.05, Two-way ANOVA was used for statistical analysis.

mice = test: Ovalbumin vaccination mouse model with CFA/IFA; assay type: in vivo; details: AVR-48 along with Ovalbumin±CFA/IFA, day 28
Method: Study Design: N=4/per group (Balbc/6J, 6-7 months old). Group-1: (OVA+CFA) 1st dose; (OVA+IFA) 2nd dose; OVA-3rd dose; Group 2: OVA+CFA+AVR-48 1st dose; OVA+IFA+AVR-48 2nd dose; OVA+AVR-48 3rd dose; and Group 3: OVA+IFA+AVR48 1st dose; OVA+IFA+AVR-48 2nd dose; OVA+AVR-48 3rd dose.
Outcome measures: Immune cell quantification (FACS) in the spleen and IgG in serum (ELISA).
In vivo study: In one study, C57Bl/6J mice (n=4/group) were dosed intramuscularly (IM) with either complete Freund's adjuvant (CFA) or incomplete Freund's adjuvant (IFA) along with AVR-48 for a 28-day study using a prime-boost-boost regimen. In the second study, mice were dosed with MPLA and Flu-peptide using only the priming dose regimen (no booster). Splenic immune cells and plasma immunoglobin concentrations were assessed at day 28.

CC(=O)NC1C(Oc2ccc([N+](=O)[O-])cc2)OC(CO)C(O)C1O (stereo not drawn) [AVR-48]
plasma concentration of IL-1β ([1]; 6-10 h): significantly lower | plasma concentration of IL-6 ([1]; 72-75 h): significantly lower | plasma concentration of IL-10 ([1]; 138-150 h): significantly higher | total protein concentration in BALf ([2]; 10 days, PT lambs vs vehicle): decreased total protein concentration | total protein concentration in BALf ([2]; 90 days, FPT lambs): no difference was observed | TNF-α concentration in BALf ([2]; early and late-stage studies): No significant change | IL-1β profile ([3]; CBMC pre-treated with compound 100 μM for 48 h followed by LPS 50 ng/mL): inhibited IL-1β profile | TNF-α in LPS-tolerant CBMCs ([3]; low dose LPS 48 h then second (high dose) LPS, with addition of compound): increased production of TNF-α | TNF-α level ([3]; pretreatment 48 h followed by LPS 24 h, vs control): significant higher level | macrophage lineage [4]: preference for intermediate macrophage lineage | CD138+/CD38+/CD27+ plasma cells in mouse spleen (mice): Increased | IgG in serum (mice): Increased

Source: patent US20250332183A1, “COMPOSITIONS AND METHODS FOR THE STIMULATION OF INTERMEDIATE MACROPHAGES AND TREATMENTS THEREWITH” (priority 2024, published 2025)
